Here are results for 23 compounds from US9469615B2, “Quinoxalines and AZA-quinoxalines as CRTH2 receptor modulators” (Merck Sharp & Dohme Corp., priority 2010, dated 2016).

Broadly, the Ki is a dissociation constant, usually derived from enzyme kinetics or from competition with a known ligand. Low values mean tighter binding, high ones weaker binding.

The first assay has as its target T1, hCRTH2 (Homo sapiens, UniProt Q9Y5Y4).
T1 construct: expressed in transfected cells; host or cells: HEK (human embryonic kidney) cells expressing hCRTH2; membrane preparation
T1 sequence (Q9Y5Y4 1-395): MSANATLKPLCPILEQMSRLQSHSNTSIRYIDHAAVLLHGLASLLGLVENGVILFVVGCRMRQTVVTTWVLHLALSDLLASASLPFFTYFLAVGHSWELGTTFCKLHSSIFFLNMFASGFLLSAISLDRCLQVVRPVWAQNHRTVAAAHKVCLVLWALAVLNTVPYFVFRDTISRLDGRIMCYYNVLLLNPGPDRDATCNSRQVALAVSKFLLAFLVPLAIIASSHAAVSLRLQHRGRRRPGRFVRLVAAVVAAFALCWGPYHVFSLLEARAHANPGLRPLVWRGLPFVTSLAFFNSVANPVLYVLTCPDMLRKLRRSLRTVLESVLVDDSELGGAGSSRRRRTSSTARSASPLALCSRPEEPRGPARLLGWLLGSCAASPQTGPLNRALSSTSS
Description: Radioligand binding assay ([3H]PGD2 competition, HEK-hCRTH2 membranes). Particulars: [3H]PGD2 binding, rated A-E (Table A). The method in brief: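 Competition binding with 3.0 nM [3H]PGD2 and 8-20 μg HEK-hCRTH2 membrane protein in 50 mM Tris-HCl pH 7.4, 1 mM EDTA, 2 mM MnCl2, 1% Me2SO, 60 min at room temperature. Nonspecific binding defined with 10 μM PGD2; bound radioactivity counted after filtration.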
The compound `CC(CCCc1nc2cc(C(=O)NCc3ccc(F)cc3)ccc2nc1-c1ccc(F)cc1)C(=O)O` (stereo not drawn) [compound 204, 3-(4-fluorophenyl)-7-[[[(4-fluorophenyl)methyl]amino]carbonyl]-alpha-methyl-2-quinoxalinepentanoic acid] came in with a Ki of 2.1 to 20 nM.
The same measure, in the same setting: under `CC(CCCc1nc2cc(C(=O)N3CCC(c4ccccc4)CC3)ccc2nc1-c1ccc(F)cc1)C(=O)O` (stereo not drawn) [compound 205, 3-(4-fluorophenyl)-alpha-methyl-7-[(4-phenyl-1-piperidinyl)carbonyl]-2-quinoxalinepentanoic acid] stands 2.1 to 20 nM; under `CC(CCCc1nc2cc(C(=O)N3CCN(c4ccccc4)CC3)ccc2nc1-c1ccc(F)cc1)C(=O)O` (stereo not drawn) [compound 206, 3-(4-fluorophenyl)-alpha-methyl-7-[(4-phenyl-1-piperazinyl)carbonyl]-2-quinoxalinepentanoic acid], 2.1 to 20 nM; under `CC(CCCc1nc2cc(C(=O)NCc3ccc(C#N)cc3)ccc2nc1-c1ccc(F)cc1)C(=O)O` (stereo not drawn) [compound 207, 7-[[[(4-cyanophenyl)methyl]amino]carbonyl]-3-(4-fluorophenyl)-alpha-methyl-2-quinoxalinepentanoic acid], 2.1 to 20 nM.
On the same count and under the same terms, under `CC(CCCc1nc2cc(C(=O)N3CC(c4ccccc4)C3)ccc2nc1-c1ccc(F)cc1)C(=O)O` (stereo not drawn) [compound 208, 3-(4-fluorophenyl)-alpha-methyl-7-[(3-phenyl-1-azetidinyl)carbonyl]-2-quinoxalinepentanoic acid] stands 2.1 to 20 nM; under `CC(CCCc1nc2cc(C(=O)N[C@H](C)c3ccc(F)cc3)ccc2nc1-c1ccc(F)cc1)C(=O)O` (stereo partly drawn) [compound 209, 3-(4-fluorophenyl)-7-[[[1(R)-(4-fluorophenyl)ethyl]amino]carbonyl]-alpha-methyl-2-quinoxalinepentanoic acid], 2.1 to 20 nM; under `CC(CCCc1nc2cc(C(=O)N[C@@H](C)c3ccc(F)cc3)ccc2nc1-c1ccc(F)cc1)C(=O)O` (stereo partly drawn) [compound 210, 3-(4-fluorophenyl)-7-[[[1(S)-(4-fluorophenyl)ethyl]amino]carbonyl]-alpha-methyl-2-quinoxalinepentanoic acid], 2.1 to 20 nM.
The compound `CC(CCCc1nc2cc(C(=O)N(C)Cc3cccc(F)c3)ccc2nc1-c1ccc(F)cc1)C(=O)O` (stereo not drawn) [compound 211, 3-(4-fluorophenyl)-7-[[[(3-fluorophenyl)methyl]methylamino]carbonyl]-alpha-methyl-2-quinoxalinepentanoic acid] had a Ki of 2.1 to 20 nM.
Still for that read-out and setting: under `CC(CCCc1nc2cc(C(=O)N(C)Cc3ccccc3)ccc2nc1-c1ccc(F)cc1)C(=O)O` (stereo not drawn) [compound 212, 3-(4-fluorophenyl)-alpha-methyl-7-[[methyl(phenylmethyl)amino]carbonyl]-2-quinoxalinepentanoic acid] stands 2.1 to 20 nM.
As for `CC(CCCc1nc2cc(C(=O)N[C@@H](CCO)c3ccccc3)ccc2nc1-c1ccc(F)cc1)C(=O)O` (stereo partly drawn) [compound 213, 3-(4-fluorophenyl)-7-[[(3-hydroxy-1(S)-phenylpropyl)amino]carbonyl]-alpha-methyl-2-quinoxalinepentanoic acid], the Ki fell in the range of 20.1 to 200 nM.
`COc1ccc(-c2nc3ccc(C(=O)N[C@H](C)c4ccc(F)cc4)cc3nc2CCCCC(=O)O)cc1` [compound 214, 7-[[[1(R)-(4-fluorophenyl)ethyl]amino]carbonyl]-3-(4-methoxyphenyl)-2-quinoxalinepentanoic acid] returned a Ki of 0.1 to 2 nM.
Same read-out and setting: under `C[C@@H](NC(=O)c1ccc2nc(-c3ccc(C#N)cc3)c(CCCCC(=O)O)nc2c1)c1ccc(F)cc1` [compound 215, 3-(4-cyanophenyl)-7-[[[1(R)-(4-fluorophenyl)ethyl]amino]carbonyl]-2-quinoxalinepentanoic acid] stands 2.1 to 20 nM; under `CC(C)Oc1ccc(-c2nc3ccc(C(=O)N4CCC(c5ccccc5)CC4)cc3nc2CCCCC(=O)O)cc1` [compound 216, 3-[4-(1-methyl-ethoxy)phenyl]-7-[(4-phenyl-1-piperidinyl)carbonyl]-2-quinoxalinepentanoic acid], 20.1 to 200 nM; under `O=C(O)CCCCc1nc2cc(C(=O)N[C@@H]3CCCc4ccccc43)ccc2nc1-c1ccc(F)cc1` [compound 217, 3-(4-fluorophenyl)-7-[[(1,2,3,4-tetrahydro-1(R)-naphthalenyl)amino]carbonyl]-2-quinoxalinepentanoic acid], 0.1 to 2 nM.
Still for that read-out and setting: for `O=C(O)CCCCc1nc2cc(C(=O)N[C@H]3CCCc4ccccc43)ccc2nc1-c1ccc(F)cc1` [compound 218, 3-(4-fluorophenyl)-7-[[(1,2,3,4-tetrahydro-1(S)-naphthalenyl)amino]carbonyl]-2-quinoxalinepentanoic acid] the value was 0.1 to 2 nM; for `O=C(O)CCCCc1nc2cc(C(=O)N[C@@H]3CCCc4cc(F)ccc43)ccc2nc1-c1ccc(F)cc1` [compound 219, 3-(4-fluorophenyl)-7-[[(6-fluoro-1,2,3,4-tetrahydro-1(R)-naphthalenyl)amino]carbonyl]-2-quinoxalinepentanoic acid], 0.1 to 2 nM.
On the same count and under the same terms, for `O=C(O)CCCCc1nc2cc(C(=O)N[C@H]3CCCc4cc(F)ccc43)ccc2nc1-c1ccc(F)cc1` [compound 220, 3-(4-fluorophenyl)-7-[[(6-fluoro-1,2,3,4-tetrahydro-1(S)-naphthalenyl)amino]carbonyl]-2-quinoxalinepentanoic acid] the value was 0.1 to 2 nM; for `O=C(O)CCCCc1nc2cc(C(=O)N[C@@H]3CCCc4cc(Cl)ccc43)ccc2nc1-c1ccc(F)cc1` [compound 221, 7-[[(6-chloro-1,2,3,4-tetrahydro-1(R)-naphthalenyl)amino]carbonyl]-3-(4-fluorophenyl)-2-quinoxalinepentanoic acid], 0.1 to 2 nM; for `O=C(O)CCCCc1nc2cc(C(=O)N[C@H]3CCCc4cc(Cl)ccc43)ccc2nc1-c1ccc(F)cc1` [compound 222, 7-[[(6-chloro-1,2,3,4-tetrahydro-1(S)-naphthalenyl)amino]carbonyl]-3-(4-fluorophenyl)-2-quinoxalinepentanoic acid], 2.1 to 20 nM.
Regarding `O=C(O)CCCCc1nc2cc(C(=O)N[C@@H]3CCc4cc(F)ccc43)ccc2nc1-c1ccc(F)cc1` [compound 223, 7-[[(5-fluoro-2,3-dihydro-1H-inden-1(R)-yl)amino]carbonyl]-3-(4-fluorophenyl)-2-quinoxalinepentanoic acid], the Ki was in the range of 0.1 to 2 nM.
Still for that read-out and setting: under `O=C(O)CCCCc1nc2cc(C(=O)N[C@H]3CCc4cc(F)ccc43)ccc2nc1-c1ccc(F)cc1` [compound 224, 7-[[(5-fluoro-2,3-dihydro-1H-inden-1(5)-yl)amino]carbonyl]-3-(4-fluorophenyl)-2-quinoxalinepentanoic acid] stands 0.1 to 2 nM; under `O=C(O)CCCCc1nc2cc(C(=O)N[C@@H]3CCc4cc(Cl)ccc43)ccc2nc1-c1ccc(F)cc1` [compound 225, 7-[[(5-chloro-2,3-dihydro-1H-inden-1(R)-yl)amino]carbonyl]-3-(4-fluorophenyl)-2-quinoxalinepentanoic acid], 0.1 to 2 nM; under `O=C(O)CCCCc1nc2cc(C(=O)N[C@H]3CCc4cc(Cl)ccc43)ccc2nc1-c1ccc(F)cc1` [compound 226, 7-[[(5-chloro-2,3-dihydro-1H-inden-1(S)-yl)amino]carbonyl]-3-(4-fluorophenyl)-2-quinoxalinepentanic acid], 0.1 to 2 nM.

The same assay, now with this note: [3H]PGD2 binding, values in text.
Compound `O=C(O)CCCCc1nc2cc(C(=O)N[C@@H]3CCCc4ccccc43)ccc2nc1-c1ccc(F)cc1` [compound 217, 3-(4-fluorophenyl)-7-[[(1,2,3,4-tetrahydro-1(R)-naphthalenyl)amino]carbonyl]-2-quinoxalinepentanoic acid] displayed a Ki of 1.2 nM.
